Laboratory results published in US9943499B2, “Lipase inhibitors for the treatment of pancreatitis and organ failure” (priority 2011, dated 2018).
Entries after “also recorded” stand apart in the source; their conditions may differ. Like-named read-outs stand apart in the source and are kept apart here.

Tests used:
acinar cells = assay type: cell-based; conditions: for prevention of linoleic acid induced LDH leakage: 300 μM LA, 30 μM BAPTA or 1 mM EGTA, 90 minutes and 3 hours
Source text: Harvesting cells: Primary acinar cells from wild type mice (C57B6) were harvested and used as described previously. Viability, confirmed by trypan blue exclusion, was >95%. […] These were used in the individual experiments. Data presented is representative of 3 or more experiments.
Acinar culture: Acinar culture was done as described previously to study inflammatory mediator upregulation.
Calcium imaging: Acinar cells loaded with fura-2AM as described previously on 35-mm glass bottom culture dishes (MatTek corporation, Ashland, Mass.) were imaged on temperature-controlled motorized stage of an Olympus IX81 inverted microscope (Olympus America Inc, Melville, N.Y.) with a 20×0.70 NA objective and a QImaging Retiga EXi CCD camera (QImaging, Burnaby, Canada). Baseline images were taken, and cells with extremely bright or dim fluorescence were omitted. Fatty acids (linolenic, linoleic, oleic, stearic, and palmitic, 100-1200 μM final concentration) were added, and cytosolic calcium levels [Cai] were determined by alternate excitation at 340 nm and 380 nm, measuring emission at 510 nm. […] Image acquisition was with the MetaMorph 7.5 Imaging System (Molecular Devices, Downington, Pa.) using the MetaMorph 6.3 software. The 340/380 emission ratio were averaged for 7-25 acini per field, with background subtraction. Data presented is a mean from separate experiments.
Visceral fat triglyceride composition: The visceral fat triglyceride composition analysis was done at Kennedy Krieger Institute (Baltimore, Md.). Briefly, total lipids were extracted by the method of Folch. The total lipids were weighed and then separated into 4 fractions by column chromatography on silicic acid. The second fraction has the mono-, di- and triglycerides, the non-esterified fatty acids, and ceramides; 400 micrograms of the second fraction was taken and purified, and non-esterified acids, triglycerides, and diglycerides were collected by thin-layer chromatography on Silica Gel G plates. The fatty acids were derivatized and analyzed by GCMS as their pentafluorbenzylbromide esters. ATP levels, cytochrome C release, and % LDH leakage were measured as previously described. Apoptosis was measured by active caspase-3 [western blotting, activity assays (Enzcheck, Invitrogen, Carlsbad, Calif.)], TUNEL assays, and Hoechst dye nuclear incorporation (8 mg/ml Hoechst 33342 added for 15 minutes after treatment). […] Results were reported as % of cells with given nuclear changes. These were counter stained with PI (1 μM) to stain necrotic cells (FIG. 7A, B, C) and imaged with a Zeiss Meta dual fluorescence confocal microscope. PI-positive cells were counted as late apoptosis or necrosis. […] Autophagy was studied by western blotting for LC3-I and II. RNA was extracted using Trizol (Invitrogen, Carlsbad, Calif.). mRNA levels of TNF-α, CXCL1, and CXCL2 were measured as described previously using real time-PCR performed on an ABI Prism 7000 Sequence Detection System (Applied Biosystems, Foster City, Calif.) on proprietary Taqman Gene Expression assay reagents (Applied Biosystems). Mitochondrial complex assays and citrate synthase assay were done as described previously.

Male Wistar rats = assay: Intraductal infusion of glyceryl trilinoleate (GTL) pancreatitis; assay type: in vivo; conditions: for mortality: intraductal GTL alone, GTL+orlistat 75 mg/ml, GTL+cetilistat 25 mg/ml, followed to day 5; for gross pancreatic appearance: hemorrhages and necrosis: intraductal GTL with or without lipase inhibitor
Description: Experiments were performed using a model, the technique of which is established and well described in rats (1, 2, 4, 7). This involves infusion of agents into the pancreatic duct to cause acute pancreatitis (1, 2, 4, 7). We will refer to this technique as “intraductal infusion”. We compared the severity of pancreatic damage and survival of rats after intraductal infusion of Glyceryl trilinoleate with and without the lipase inhibitor orlistat. In addition, we used a different lipase inhibitor-cetilistat (3, 6), and studied its efficacy in improving survival of rats in intraductal infusion pancreatitis induced with Glyceryl trilinoleate (GTL).
Male Wistar rats (250-350 gm), were anesthetized. Intraductal infusion of 0.1 ml (n=5) or 0.2 ml (n=5) of GTL (Sigma-Aldrich corporation) alone or GTL+orlistat (Caymen chemical, Ann Arbor, Mich.) (75 mg/ml, 0.1 ml n=5 or 0.2 ml n=5) or GTL+cetilistat (Jinan Wedo Industrial Co., Ltd., Jinan City, Shandong China) (25 mg/ml, 0.2 ml, n=10) was done as described previously (1, 2, 4, 7). All animals were given pain control (buprenorphine 200 mcg/kg BID), Cefazolin (100 mg/kg), and 10 cc saline subcutaneously BID as per the IACUC protocol. These were followed for survival.

[1] = in combination with GTL, at necropsy

O=C(O)CN(CC(=O)O)c1ccccc1OCCOc1ccccc1N(CC(=O)O)CC(=O)O [BAPTA]
prevention of linoleic acid induced LDH leakage (acinar cells): partially prevented

O=C(O)CN(CCOCCOCCN(CC(=O)O)CC(=O)O)CC(=O)O [EGTA]
prevention of linoleic acid induced LDH leakage (acinar cells): ineffective
LDH leakage (acinar cells; 300 μM linoleic acid, EGTA 1 mM, 90 minute): 21.2±8.3%
LDH leakage (acinar cells; 300 μM linoleic acid, EGTA 1 mM, 3 hour): 54.6±6.4%

CCCCC/C=C\C/C=C\CCCCCCCC(=O)OCC(COC(=O)CCCCCCC/C=C\C/C=C\CCCCC)OC(=O)CCCCCCC/C=C\C/C=C\CCCCC [GTL, glyceryl trilinoleate]
mortality (Male Wistar rats; dead/total): 10/10
first day mortality (Male Wistar rats; dead/total, intraductal GTL without further treatment): 10/10
gross pancreatic appearance: hemorrhages and necrosis (Male Wistar rats): caused severe hemorrhages, and near total necrosis of the gland within 24 hours

CCCCCCCCCCCCCCCCOc1nc2ccc(C)cc2c(=O)o1 [cetilistat]
mortality (Male Wistar rats; dead/total): 2/10
lung injury (TUNEL positive nuclei) (Male Wistar rats; [1]): nearly completely prevented
renal injury (TUNEL positive nuclei) (Male Wistar rats; [1]): nearly completely prevented; also recorded: absence of staining TUNEL positive nuclei
lung injury (TUNEL positive nuclei) (Male Wistar rats; in combination with GTL, at necropsy, listed as Cetilistat): absence of TUNEL positive nuclei
gross pancreatic appearance: hemorrhages and necrosis (Male Wistar rats): prevented the hemorrhages and necrosis up to 5 days

CCCCC/C=C\C/C=C\CCCCCCCC(=O)O [linoleic acid]
acinar mRNA levels of TNF-α, CXCL1 and CXCL2 (acinar cells; 200 μM fatty acid (sub-lethal)): increased
autophagy (LC3-II) and apoptosis (active caspase3) (acinar cells; 300 μM linoleic acid): not activated

C/C=C(/C)C(=O)O[C@H]1C(C)=C2[C@H]([C@@H]1OC(=O)CCCCCCC)[C@@](C)(OC(C)=O)C[C@H](OC(=O)CCC)[C@@]1(O)[C@H]2OC(=O)[C@@]1(C)O [thapsigargin]
600 μM LA induced intra-acinar calcium (Cai) increase (acinar cells; 1 μM thapsigargin, EGTA 1 mM): prevents
